Reference: patent US11498923B2 (Merck Sharp & Dohme Corp., priority 2017, dated 2022)

Biological target: T1, human A2a receptor (Homo sapiens, UniProt P29274)
T1 construct: purchased Perkin-Elmer RBHA2AM400UA; host or cells: HEK293 cells, used as a membrane preparation
Test: A2a receptor competition binding assay (Scintillation Proximity)
Conditions: A2a Ki, membranes from HEK293 cells expressing human A2a receptor; 0.5 nM tritiated ligand; Cheng-Prusoff
How it was run: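 Ki values were obtained with the Cheng-Prusoff equation from competition curves against 0.5 nM tritiated antagonist, scintillation proximity counting after 1 h room-temperature incubation. Receptor came from HEK293 membranes pretreated with adenosine deaminase; compound final range 3000–0.15 nM, buffer Ca/Mg-free PBS with 10 mM MgCl2.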

T1 sequence (P29274 whole entry): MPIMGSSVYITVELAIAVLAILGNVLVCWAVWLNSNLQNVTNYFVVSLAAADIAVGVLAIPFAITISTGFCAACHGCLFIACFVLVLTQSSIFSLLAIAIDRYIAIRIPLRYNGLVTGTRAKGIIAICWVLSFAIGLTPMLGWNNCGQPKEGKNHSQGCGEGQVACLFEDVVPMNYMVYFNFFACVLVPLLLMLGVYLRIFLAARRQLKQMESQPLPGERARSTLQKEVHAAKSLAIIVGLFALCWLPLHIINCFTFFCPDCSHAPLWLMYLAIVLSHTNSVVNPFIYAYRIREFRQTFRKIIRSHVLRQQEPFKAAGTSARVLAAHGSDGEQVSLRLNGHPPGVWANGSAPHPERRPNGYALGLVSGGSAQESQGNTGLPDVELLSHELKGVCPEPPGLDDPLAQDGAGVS

Which Ki does the source give for `COc1cccc2c1nc(N)n1cc(C(=O)N3C4CCC3CC4)nc21` [Ex-218, (5-amino-7-methoxyimidazo[1,2-c]quinazolin-2-yl)((1s,4s)-7-azabicyclo[2.2.1]heptan-7-yl)methanone] here?
Its Ki is 6.1 nM.

Same assay, conditions: membranes from HEK293 cells expressing human A2a receptor; 0.5 nM tritiated ligand; Cheng-Prusoff; read-out: A2a Ki

For `COc1cccc2c1nc(N)n1cc(Cc3cccc4c3CCN(C(=O)CCC(F)(F)F)C4)nc21` [Ex-60, 1-(5-((5-amino-7-methoxyimidazo[1,2-c]quinazolin-2-yl)methyl)-3,4-dihydroisoquinolin-2(1H)-yl)-4,4,4-trifluorobutan-1-one], which Ki is on record?
The Ki was 2 nM.

For `COc1cccc2c1nc(N)n1cc(C(=O)N3CCOCC3CC(C)C)nc21` (stereo not drawn) [Ex-186, (5-amino-7-methoxyimidazo[1,2-c]quinazolin-2-yl)(3-isobutylmorpholino) methanone], which Ki is on record?
Its Ki is 53.8 nM.

With `COc1cccc2c1nc(N)n1cc(Cc3ccnc(N4CCN(C(C)=O)CC4)c3)nc21` [Ex-46, 1-(4-(4-((5-amino-7-methoxyimidazo[1,2-c]quinazolin-2-yl)methyl)pyridin-2-yl)piperazin-1-yl)ethan-1-one] as the compound, how does the Ki read?
The Ki was 7.4 nM.

How did the Ki turn out when `COc1cccc2c1nc(N)n1cc(C(=O)N3CCC[C@@H]3C)nc21` [Ex-216, (S)-(5-amino-7-methoxyimidazo[1,2-c]quinazolin-2-yl)(2-methylpyrrolidin-1-yl)methanone] was run?
Its Ki is 10 nM.

`COc1cccc2c1nc(N)n1cc(Cc3ccccc3C(F)(F)F)nc21` [Ex-17, 7-methoxy-2-(2-(trifluoromethyl)benzyl)imidazo[1,2-c]quinazolin-5-amine] was tested. Which Ki did it give?
Its Ki is 0.8 nM.

For `COc1cccc2c1nc(N)n1cc(C(=O)N3CCC4OCCC43)nc21` (stereo not drawn) [Ex-220, (5-amino-7-methoxyimidazo[1,2-c]quinazolin-2-yl)(hexahydro-4H-furo[3,2-b]pyrrol-4-yl)methanone], which Ki is on record?
Its Ki is 24 nM.

How did the Ki turn out when `COc1cccc2c1nc(N)n1cc(C(=O)N3CCCC4(CCCCO4)C3)nc21` (stereo not drawn) [Ex-204, (5-amino-7-methoxyimidazo[1,2-c]quinazolin-2-yl)(1-oxa-8-azaspiro[5.5]undecan-8-yl)methanone] was run?
The Ki was 12 nM.

How did the Ki turn out when `COc1cccc2c1nc(N)n1cc(C(=O)N3CCC(C)CC3)nc21` [Ex-193, (5-amino-7-methoxyimidazo[1,2-c]quinazolin-2-yl)(4-methylpiperidin-1-yl)methanone] was run?
The Ki was 13 nM.

With `COc1cccc2c1nc(N)n1cc(C(=O)N3CCCC4(COC4)C3)nc21` [Ex-203, (5-amino-7-methoxyimidazo[1,2-c]quinazolin-2-yl)(2-oxa-6-azaspiro[3.5]nonan-6-yl)methanone] as the compound, how does the Ki read?
Its Ki is 11 nM.

For `COc1ccc(-c2cn(Cc3cn4c(N)nc5c(OC)cccc5c4n3)nn2)cc1` [Ex-93, 7-methoxy-2-((4-(4-methoxyphenyl)-1H-1,2,3-triazol-1-yl)methyl)imidazo[1,2-c]quinazolin-5-amine], which Ki is on record?
Its Ki is 2.5 nM.

With `COc1cccc2c1nc(N)n1cc(Cc3cc(C(F)(F)F)ccc3N3CCOCC3)nc21` [Ex-30, 7-methoxy-2-(2-morpholino-5-(trifluoromethyl)benzyl)imidazo[1,2-c]quinazolin-5-amine] as the compound, how does the Ki read?
Its Ki is 38 nM.

How did the Ki turn out when `COc1cccc2c1nc(N)n1cc(CN3CC(c4cccc(Cl)c4)C3)nc21` [Ex-144, 2-((3-(3-chlorophenyl)azetidin-1-yl)methyl)-7-methoxyimidazo[1,2-c]quinazolin-5-amine] was run?
The Ki was 13 nM.

Which Ki does the source give for `Nc1nc2c(F)cccc2c2nc(Cc3ccccc3)cn12` [Ex-06, 2-benzyl-7-fluoroimidazo[1,2-c]quinazolin-5-amine] here?
Its Ki is 0.9 nM.

For `Nc1nc2c(F)cccc2c2nc(C(=O)NCc3ccccc3CN3CCOCC3)cn12` [Ex-255, 5-amino-7-fluoro-N-(2-(morpholinomethyl)benzyl) imidazo[1,2-c]quinazoline-2-carboxamide], which Ki is on record?
Its Ki is 6.1 nM.
